From US12486269B2 (Aconcagua Bio, Inc., priority 2024, dated 2025)

How the values were obtained:
[1] = target: T1, COS-7/AMY3 (human calcitonin receptor (CTR) and RAMP3) (Homo sapiens, UniProt O60896+P30988); assay: Amylin Receptor cAMP Assay II; assay type: cell-based; conditions: values marked **: Amylin Receptor cAMP Assay II; COS-7/AMY3 cells, cAMP dynamic 2 kit, 30 min; read-out: Amylin Receptor cAMP Stimulation Activity: EC50
T1 construct: expressed in transfected cells; host or cells: COS-7
T1 sequence (O60896 24-148, one chain of several): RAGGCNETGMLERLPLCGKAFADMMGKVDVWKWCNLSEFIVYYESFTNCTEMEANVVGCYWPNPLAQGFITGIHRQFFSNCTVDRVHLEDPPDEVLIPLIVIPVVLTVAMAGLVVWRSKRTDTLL
Outline: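 COS-7 cells stably co-expressing human CTR and RAMP3 (AMY3), 2000 cells/well in HBSS with 20 mM HEPES, 0.5 mM IBMX, 0.1% casein, stimulated with compound for 30 min at 37 °C. cAMP measured by HTRF (665/615 nm), activity normalized between vehicle and maximal control.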

[2] = target: T2, human calcitonin receptor (CTR) (Homo sapiens, UniProt P30988); assay: Calcitonin Receptor (CTR) cAMP Assay; assay type: cell-based; conditions: COS7-human CTR Clone #2 stable cell line, cAMP dynamic 2 kit, 30 min; read-out: Calcitonin Receptor cAMP Stimulation Activity: EC50
T2 construct: expressed in transfected cells; host or cells: COS-7 (COS7-human CTR Clone #2)
T2 sequence (P30988 25-474): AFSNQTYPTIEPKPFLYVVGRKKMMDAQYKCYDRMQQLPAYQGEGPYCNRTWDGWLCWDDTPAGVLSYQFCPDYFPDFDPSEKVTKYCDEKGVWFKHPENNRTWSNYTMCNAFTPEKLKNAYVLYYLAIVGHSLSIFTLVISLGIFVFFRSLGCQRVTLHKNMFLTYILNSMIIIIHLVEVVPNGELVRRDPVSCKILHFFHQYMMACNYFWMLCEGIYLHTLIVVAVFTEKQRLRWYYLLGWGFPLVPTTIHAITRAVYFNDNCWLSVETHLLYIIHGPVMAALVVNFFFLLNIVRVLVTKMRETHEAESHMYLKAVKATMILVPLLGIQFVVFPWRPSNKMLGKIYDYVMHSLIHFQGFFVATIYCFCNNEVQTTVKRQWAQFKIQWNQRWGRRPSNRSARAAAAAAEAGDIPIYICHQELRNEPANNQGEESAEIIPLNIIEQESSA
Outline: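 COS-7 cells stably expressing human CTR (2000 cells/well) were incubated 30 min at 37 °C with 4-fold serially diluted compound in HBSS/20 mM HEPES/0.5 mM IBMX/0.1% casein. cAMP was detected by HTRF (665/615 nm) after 1 h at RT. % activity was normalised to vehicle and positive controls.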

Row | EC50 [1] | EC50 [2] | SMILES
1 | 1590 nM | 26.1 nM | O=C1c2c(nc(CCC3CCOCC3)c(-c3cc(=O)[nH]o3)c2-c2cc3ccnc(NCc4ccc(F)c(F)c4)c3s2)[C@@H]2CCCN12 [Compound 206, (S)-5-(4-(7-((3,4-difluorobenzyl)amino)thieno[2,3-c]pyridin-2-yl)-5-oxo-2-(2-(tetrahydro-2H-pyran-4-yl)ethyl)-7,8,9,9a-tetrahydro-5H-pyrido[2,3-a]pyrrolizin-3-yl)isoxazol-3(2H)-one]
2 | 0.394 nM | 0.0262 nM | COc1c(F)ccc2c1CC[C@H]2Nc1nccc2cc(-c3c4c(nc(CCc5cccc(F)c5)c3-c3n[nH]c(=O)o3)C35CC(CN3C4=O)C5)sc12 [Compound 275, (R)-5-(4-(7-((5-fluoro-4-methoxy-2,3-dihydro-1H-inden-1-yl)amino)thieno[2,3-c]pyridin-2-yl)-2-(3-fluorophenethyl)-5-oxo-8,9-dihydro-5H,7H-8,9a-methanopyrido[2,3-a]pyrrolizin-3-yl)-1,3,4-oxadiazol-2(3H)-one]
3 | 231 nM | 15.2 nM | COc1cccc2c1CC[C@H]2Nc1nccc2cc(-c3c4c(nc(C(C)C)c3-c3n[nH]c(=O)o3)[C@@H]3CCCN3C4=O)sc12 [Compound 185, 5-((S)-2-isopropyl-4-(7-(((R)-4-methoxy-2,3-dihydro-1H-inden-1-yl)amino)thieno[2,3-c]pyridin-2-yl)-5-oxo-7,8,9,9a-tetrahydro-5H-pyrido[2,3-a]pyrrolizin-3-yl)-1,3,4-oxadiazol-2(3H)-one]
4 | 1.38 nM | 0.0875 nM | O=C1c2c(nc(CCc3ccc(F)cc3)c(-c3n[nH]c(=O)o3)c2-c2cc3ccnc(N[C@@H]4CCc5cc(F)c(F)cc54)c3s2)[C@@H]2CCCN12 [Compound 166, 5-((S)-4-(7-(((R)-5,6-difluoro-2,3-dihydro-1H-inden-1-yl)amino)thieno[2,3-c]pyridin-2-yl)-2-(4-fluorophenethyl)-5-oxo-7,8,9,9a-tetrahydro-5H-pyrido[2,3-a]pyrrolizin-3-yl)-1,3,4-oxadiazol-2(3H)-one]
5 | 35.8 nM | 1.82 nM | N#Cc1ccc(Cn2ccc3cc(-c4c(-c5n[nH]c(=O)o5)c(CCc5ccc(F)cc5)nc5c4c(=O)n4n5CCC4)cnc32)cc1F [Compound 161]
6 | 342 nM | 5.7 nM | COc1cccc2c1CC[C@H]2Nc1nccc2cc(-c3c4c(nc(CCC5CCOCC5)c3-c3cc(=O)[nH]o3)[C@@H]3CCCN3C4=O)sc12 [Compound 205, 5-((S)-4-(7-(((R)-4-methoxy-2,3-dihydro-1H-inden-1-yl)amino)thieno[2,3-c]pyridin-2-yl)-5-oxo-2-(2-(tetrahydro-2H-pyran-4-yl)ethyl)-7,8,9,9a-tetrahydro-5H-pyrido[2,3-a]pyrrolizin-3-yl)isoxazol-3(2H)-one]
7 | 288 nM | 18.7 nM | O=C1c2c(nc(CCc3ccc(F)cc3)c(-c3noc(=O)[nH]3)c2-c2cc3ccnc(NCc4ccc5c(c4)CCC5)c3s2)[C@@H]2CCCN12 [Compound 148]
8 | 1.24 nM | 0.0529 nM | COc1c(F)ccc2c1C[C@@H](F)[C@H]2Nc1nccc2cc(-c3c4c(nc(CCc5ccc(F)cc5)c3-c3n[nH]c(=O)o3)[C@@H]3CCCN3C4=O)sc12 [Compound 260, 5-((S)-4-(7-(((1S,2R)-2,5-difluoro-4-methoxy-2,3-dihydro-1H-inden-1-yl)amino)thieno[2,3-c]pyridin-2-yl)-2-(4-fluorophenethyl)-5-oxo-7,8,9,9a-tetrahydro-5H-pyrido[2,3-a]pyrrolizin-3-yl)-1,3,4-oxadiazol-2(3H)-one]
9 | 26.8 nM | 0.741 nM | COc1cccc2c1CC[C@H]2Nc1nccc2cc(-c3c(-c4n[nH]c(=O)o4)c(CCc4ccc(F)cc4)nc4c3S(=O)(=O)N3CCC[C@@H]43)sc12 [Compound 175, 5-((S)-2-(4-fluorophenethyl)-4-(7-(((R)-4-methoxy-2,3-dihydro-1H-inden-1-yl)amino)thieno[2,3-c]pyridin-2-yl)-5,5-dioxido-7,8,9,9a-tetrahydropyrrolo[1′,2′:2,3]isothiazolo[4,5-b]pyridin-3-yl)-1,3,4-oxadiazol-2(3H)-one]
10 | 38.3 nM | 3.06 nM | O=C1c2c(nc(CCc3ccc(F)cc3)c(-c3noc(=O)[nH]3)c2-c2cc3ccnc(NCc4ccc(F)c(F)c4)c3s2)[C@@H]2CCCN12 [Compound 130]
11 | 81.6 nM | 4.23 nM | COc1cccc2c1CC(F)(F)[C@H]2Nc1nccc2cc(-c3c4c(nc(CCc5ccc(F)cc5)c3-c3n[nH]c(=O)o3)[C@@H]3COCCN3C4=O)sc12 [Compound 284, (R)-4-(7-(((S)-2,2-difluoro-4-methoxy-2,3-dihydro-1H-inden-1-yl)amino)thieno[2,3-c]pyridin-2-yl)-2-(4-fluorophenethyl)-3-(5-oxo-4,5-dihydro-1,3,4-oxadiazol-2-yl)-7,8,10,10a-tetrahydro-5H-pyrido[2′,3′:3,4]pyrrolo[2,1-c][1,4]oxazin-5-one]
12 | 16.6 nM | 2.58 nM | O=C1c2c(nc(CCc3ccc(F)cc3)c(-c3noc(=O)[nH]3)c2-c2ccc3c(ccn3Cc3ccc(F)c(F)c3)c2)[C@@H]2CCCN12 [Compound 153]
13 | 0.747 nM | 0.0212 nM | COc1cc(F)cc2c1CC[C@H]2Nc1nc(C)cc2cc(-c3c4c(nc(CCc5ccc(F)cc5)c3-c3n[nH]c(=O)o3)C35CC(CN3C4=O)C5)sc12 [Compound 298, (R)-5-(4-(7-((6-fluoro-4-methoxy-2,3-dihydro-1H-inden-1-yl)amino)-5-methylthieno[2,3-c]pyridin-2-yl)-2-(4-fluorophenethyl)-5-oxo-8,9-dihydro-5H,7H-8,9a-methanopyrido[2,3-a]pyrrolizin-3-yl)-1,3,4-oxadiazol-2(3H)-one]
14 | 6.35 nM | 0.807 nM | COc1c(F)ccc2c1C[C@H](F)[C@H]2Nc1nccc2cc(-c3c4c(nc(CCc5ccc(F)cc5)c3-c3n[nH]c(=O)o3)[C@@H]3CCCN3C4=O)sc12 [Compound 261, 5-((S)-4-(7-(((1S,2S)-2,5-difluoro-4-methoxy-2,3-dihydro-1H-inden-1-yl)amino)thieno[2,3-c]pyridin-2-yl)-2-(4-fluorophenethyl)-5-oxo-7,8,9,9a-tetrahydro-5H-pyrido[2,3-a]pyrrolizin-3-yl)-1,3,4-oxadiazol-2(3H)-one]
15 | 1.96 nM | 0.229 nM | COc1cccc2c1CC(F)(F)[C@H]2Nc1nccc2cc(-c3c4c(nc(CCc5ccc(F)cc5)c3-c3n[nH]c(=O)o3)[C@@H]3CCCN3C4=O)sc12 [Compound 194, 5-((S)-4-(7-(((S)-2,2-difluoro-4-methoxy-2,3-dihydro-1H-inden-1-yl)amino)thieno[2,3-c]pyridin-2-yl)-2-(4-fluorophenethyl)-5-oxo-7,8,9,9a-tetrahydro-5H-pyrido[2,3-a]pyrrolizin-3-yl)-1,3,4-oxadiazol-2(3H)-one]
16 | 2410 nM | 21.1 nM | O=C1c2c(nc(CCc3ccc(F)cc3)c(-c3n[nH]c(=O)o3)c2-c2cc3ccnc(N[C@@H]4CCc5nc(C(F)(F)F)ccc54)c3s2)[C@@H]2CCCN12 [Compound 247, 5-((S)-2-(4-fluorophenethyl)-5-oxo-4-(7-(((R)-2-(trifluoromethyl)-6,7-dihydro-5H-cyclopenta[b]pyridin-5-yl)amino)thieno[2,3-c]pyridin-2-yl)-7,8,9,9a-tetrahydro-5H-pyrido[2,3-a]pyrrolizin-3-yl)-1,3,4-oxadiazol-2(3H)-one]
17 | 253 nM | 25.6 nM | O=C(c1ccc(-c2c3c(nc(CCc4ccc(F)cc4)c2-c2noc(=O)[nH]2)[C@@H]2CCCN2C3=O)s1)N1CCCC1c1ccc(F)c(F)c1 (some centres unmarked) [Compound 116]
18 | 266 nM | 5.06 nM | CC(c1ccc(C#N)c(F)c1)n1ccc2cc(-c3c4c(nc(CCC5CCOCC5)c3-c3cc(=O)[nH]o3)[C@@H]3CCCN3C4=O)ccc21 (stereo partly drawn) [Compound 204, 2-fluoro-4-(1-(5-((S)-5-oxo-3-(3-oxo-2,3-dihydroisoxazol-5-yl)-2-(2-(tetrahydro-2H-pyran-4-yl)ethyl)-7,8,9,9a-tetrahydro-5H-pyrido[2,3-a]pyrrolizin-4-yl)-1H-indol-1-yl)ethyl)benzonitrile]
19 | 34.2 nM | 1.25 nM | COc1cccc2c1CC[C@H]2Nc1nccc2cc(-c3c4c(nc(CCc5ccc(F)cc5)c3-c3n[nH]c(=O)o3)[C@]3(C)COCCN3C4=O)sc12 [Compound 179, (R)-2-(4-fluorophenethyl)-4-(7-(((R)-4-methoxy-2,3-dihydro-1H-inden-1-yl)amino)thieno[2,3-c]pyridin-2-yl)-10a-methyl-3-(5-oxo-4,5-dihydro-1,3,4-oxadiazol-2-yl)-7,8,10,10a-tetrahydro-5H-pyrido[2′,3′:3,4]pyrrolo[2,1-c][1,4]oxazin-5-one]
